Measurements as given in paper PMC5617480 (Oncotarget, 2017).
Values belong to the molecule of their own block, whether it stands above or below them.

Assays:
BEL-7402 cells = system: BEL-7402 cells; parameters: method as in earlier work; conditions: BEL-7402, 48 h; ref [1]; cited from earlier work
[1] = system: FPu18T (DNA, G4) AGGGTGGGGAGGGTGGGG; experiment: FRET melting; conditions: 100 mM K+; 10 mM Tris-HCl, pH 7.35; 2.0 μM compound, 1.0 μM DNA
Pu22 = system: Pu22; parameters: method as in earlier work; conditions: ref [1], cited from earlier work; for ctDNADC50/Pu22DC50: FID selectivity ratio; for Pu22DC50: FID
F21T = experiment: FRET-melting assay; format: binding; conditions: F21T 1.0 μM, compound 2.0 μM
Protocol: (§1) We asked whether chiral platinum(II) complexes 4–6 have the ability to bind to G-quadruplex DNA. To address this, FRET assays, CD spectroscopy, G4-FID assays, and fluorescence titration analysis were performed. […] For G4-HTG21, the ^G4DC50 values of complexes 4–6 were 1.23, 1.26 and 0.99 μM, respectively; while, for G4-Pu27, the ^G4DC50 values were 1.01, 0.89, and 0.82 μM, respectively. In addition, the ^ctDNADC50/^G4DC50 ratio of the HTG21 and Pu27 G4s treated with complexes 4–6 was in the range of 50.54-90.65 and 71.56-110.67 folds, respectively. To further evaluate the binding ability of complexes 4–6 to Pu27 and HTG21G4s, CD spectroscopy and fluorescence titration analysis were performed. […] The quenching ability of complexes 4–6 to HTG21 and Pu27 G4 DNA fluorescence can be quantitatively estimated by their respective quenching constant (Kq), which was derived from the Stern-Volmer quenching equation. […] Finally, the selective binding of complexes 4–6 towards G4 DNA was analyzed by FRET-melting assays. […] In contrast, the ΔTm value for the F32T+H20M duplex DNA in the presence of complexes 4–6 was 1.18, 1.34, and 0.78 °C under the same conditions (Figure 4A). Altogether, our data indicated complexes 4–6, especially complex 6, is the best binder to G4 DNA, which caused DNA complex displaying the highest thermodynamic stability.
(§2) Figure 4 Complexes 4–6 induced telomeres damage and inhibited the telomerase activity through directly regulating the mRNA level of c-myc promoter (Pu27) (A) ΔTm data (°C) of 1.0 μM HTG21, Pu39 and c-myc G4s and duplex DNA (F32T+H20M) treated with complexes 1–6 at 0–2.0 μM were evaluated by […]. (B) The levels of TRF2, 53BP1, and TRF1 in BEL-7404 cells treated with complexes 4–6 at 10 μM for 24 h were examined by Western blot. (C) The whole-cell extracts were prepared and analyzed by Western blot analysis using antibodies against TRF2, 53BP1, and TRF1. The same blots were stripped and re-probed with β-actin antibody to show equal protein loading. Western blotting bands from three independent measurements were quantified with Image J. in (B). (D) The influence of complexes 4–6 (10 μM) on the telomerase activity of the BEL-7404 cells for 24 h. (E) The investigations of the expression of c-myc and hTERT in the BEL-7404 tumor cells when incubated with complexes 4–6 (10 μM) for 24 h. C-myc and hTERT protein levels in BEL-7404 cells were analyzed by western blot. (F) The whole-cell extracts were prepared and analyzed by Western blot analysis using antibodies against c-myc and hTERT. The same blots were stripped and re-probed with β-actin antibody to show equal protein loading. Western blotting bands from three independent measurements were quantified with Image J. in (E). (G) qRT-PCR analysis of the expression levels of hTERT and c-myc in the BEL-7404 cells treated with complexes 4–6 (10 μM). The BEL-7404 cells (5×10^5) were treated with complexes 4–6 (10 μM) for 24 h. The total RNA in the cells was extracted and subjected to reverse transcription, followed by PCR for c-myc, hTERT, and GAPDH (control). (H) and (I) The investigations of the role of the transfections of EGFP plasmid vector (H) and c-myc plasmid vector (I) in the BEL-7404 tumor cells when incubated with complexes 4–6 (10 μM) for 24 h. First, 2.0 μg of EGFP-carrying plasmid vector or 2.0 μg of c-myc-carrying plasmid vector was cotransfected into BEL-7404 cells using Lipofectamine 2000 (Invitrogen, Grand Island, NY, USA). Complexes 4–6 (10 μM) were then added, respectively, into medium at 6.0 h after transfection of c-myc plasmid. At another 24 h after treatment with complexes 4–6 (10 μM), these cells were imaged using Nikon TE2000 (Japan) scanning fluorescent microscope or were examined by Multimodel Plate Reader with luciferase reporter gene assay kit. […]

FPu18T = experiment: FRET-melting assay; format: binding; conditions: FPu18T 1.0 μM, compound 2.0 μM
Protocol: as §1, §2

F32T+H20M duplex DNA = experiment: FRET-melting assay; format: binding; conditions: F32T+H20M duplex DNA 1.0 μM, compound 2.0 μM
Protocol: as §1, §2

ds26 = experiment: FID assay; format: binding; conditions: for ds26DC50: FID; for ctDNADC50/ds26DC50: FID selectivity ratio
c-kit-2 = experiment: FID assay; format: binding; conditions: for c-kit-2DC50: FID; for ctDNADC50/c-kit-2DC50: FID selectivity ratio

Molecule: cis-[PtCl2(R-(+)-FOA)] [complex 5]
ΔTm (F21T): 12.95 °C
ΔTm (FPu18T): 16.66 °C
ΔTm (F32T+H20M duplex DNA): 1.34 °C
ds26DC50 (ds26): 2.23 µM
ctDNADC50/ds26DC50 (ds26): 28.56
c-kit-2DC50 (c-kit-2): 3.08 µM
ctDNADC50/c-kit-2DC50 (c-kit-2): 20.68

Molecule: cis-[PtCl2(R/S-(±)-FOA)] [complex 4]
ΔTm (F21T): 13.19 °C
ΔTm (FPu18T): 19.15 °C
ΔTm (F32T+H20M duplex DNA): 1.18 °C
ds26DC50 (ds26): 1.65 µM
ctDNADC50/ds26DC50 (ds26): 45.98
c-kit-2DC50 (c-kit-2): 2.48 µM
ctDNADC50/c-kit-2DC50 (c-kit-2): 30.59

Molecule: cis-[PtCl2(S-(–)-FOA)] [complex 6]
ΔTm (F21T): 20.07 °C
ΔTm (FPu18T): 23.01 °C
ΔTm (F32T+H20M duplex DNA): 0.78 °C
ds26DC50 (ds26): 1.39 µM
ctDNADC50/ds26DC50 (ds26): 65.27
c-kit-2DC50 (c-kit-2): 4.78 µM
ctDNADC50/c-kit-2DC50 (c-kit-2): 18.98

Second part, led by results:

ΔTm [1]: 19.15 °C
Molecule: O=C(NCC(O)CO)c1cnc2c3c(cccc13)-c1ccccc1C2=O.[Cl-].[Cl-].[Pt+2] (racemic) [ligand 1, R/S-(±)-FOA]
IC50 (BEL-7402 cells): 30.4 ± 1.5 µM
ctDNADC50/Pu22DC50 (Pu22): 1.88
Pu22DC50 (Pu22): 33.97 µM

ΔTm [1]: 16.66 °C
Molecule: O=C(NC[C@@H](O)CO)c1cnc2c3c(cccc13)-c1ccccc1C2=O.[Cl-].[Cl-].[Pt+2] [ligand 2, R-(+)-FOA]
IC50 (BEL-7402 cells): 68.6 ± 0.8 µM
ctDNADC50/Pu22DC50 (Pu22): 0.69
Pu22DC50 (Pu22): 57.62 µM

ΔTm [1]: 23.01 °C
Molecule: O=C(NC[C@H](O)CO)c1cnc2c3c(cccc13)-c1ccccc1C2=O.[Cl-].[Cl-].[Pt+2] [ligand 3, S-(–)-FOA]
IC50 (BEL-7402 cells): 28.5 ± 2.4 µM
ctDNADC50/Pu22DC50 (Pu22): 3.49
Pu22DC50 (Pu22): 25.75 µM
